Measured values as given in patent US7081472B2, “Substituted bis-indole derivatives useful as contrast agents, pharmaceutical compositions containing them and intermediates for producing them” (K. U. Leuven Research & Development, priority 2000, dated 2006).

Tests used:
[1] = animals, 1 mmole of the gadolinium complex per kg body weight; cited from earlier work
[2] = 0.25 mmolar solution, yellow-orange color; cited from earlier work
[3] = MR angiography after intravenous injection in a rabbit; type: in vivo; settings: i.v. 0.1 mmole per kg
From the text: For the purpose of a comparison with a known contrast agent, MR angiographic images of a rabbit were taken (shown in FIG. 5) after intravenous injection of: • a commercial MRI contrast agent (Gd-DTPA commercially available under the tradename Magnevisto® from Schering A G, Berlin, Germany) at a concentration of 0.1 mmole per kg bodyweight (A-C), and • the complex of example 8 at a concentration of 0.05 mmole per kg bodyweight (A′-C′).

gadolinium complex of the bis-diethylenetriaminepentaacetic acid pamoic acid derivative obtained from 3-hydroxy-2-naphtalene methyl carboxylate
side effects after intravenous bolus injection [1]: significant side effects (e.g. myocarditis)
absorbance at 400 nm [2]: 0.75

O=C([O-])CN(CCN(CC(=O)[O-])CC(=O)O)CCN(CC(=O)[O-])CC(=O)O.[Gd+3] [Gd-DTPA]
contrast enhancement of abdominal aorta, first pass ([3]; immediately after injection): moderately enhanced
contrast enhancement of abdominal aorta ([3]; one minute after contrast): faintly enhanced
